Test results taken from US8471005B2 (Cephalon, Inc., priority 2008, dated 2013).
Like-named read-outs stand apart in the source and are kept apart here.

Legend:
[1] = target: T1, JAK2 (Homo sapiens, UniProt O60674); assay: Recombinant Human JAK2 Kinase Assay (TRF); assay type: biochemical; details: read-out: JAK2 Potency
T1 construct: host or cells: baculovirus expression system
Method in brief: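 TRF read-out: Eu-N1 PY100 anti-phosphotyrosine antibody detects product. Enzyme is baculovirus-expressed JAK2 at 15 ng/ml; substrate is a biotinyl 15-mer peptide bound to Neutravidin-coated wells. Buffer 20 mM HEPES pH 7.2, 0.2 μM ATP, 1 mM MnCl2, 0.1% BSA, 2.5% DMSO final; 20 min, RT.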

[2] = target: T2, ALK (Homo sapiens, UniProt Q9UM73); assay: ALK Kinase Assay (ELISA/TRF, PLC-γ substrate); assay type: biochemical; details: read-out: ALK Potency
T2 construct: host or cells: baculovirus expression system
Method in brief: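 Read-out is time-resolved fluorescence from a Eu-N1-labeled PT66 antibody that binds phosphorylated PLC-γ, the substrate coated at 10 μg/mL in TBS. ALK at 30 ng/ml starts the reaction, which runs 15 minutes at 37° C.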

[3] = JAK2 kinase inhibition, 0.2 μM ATP
[4] = ALK kinase inhibition, 1 μM ATP

T2 sequence (Q9UM73 19-1620): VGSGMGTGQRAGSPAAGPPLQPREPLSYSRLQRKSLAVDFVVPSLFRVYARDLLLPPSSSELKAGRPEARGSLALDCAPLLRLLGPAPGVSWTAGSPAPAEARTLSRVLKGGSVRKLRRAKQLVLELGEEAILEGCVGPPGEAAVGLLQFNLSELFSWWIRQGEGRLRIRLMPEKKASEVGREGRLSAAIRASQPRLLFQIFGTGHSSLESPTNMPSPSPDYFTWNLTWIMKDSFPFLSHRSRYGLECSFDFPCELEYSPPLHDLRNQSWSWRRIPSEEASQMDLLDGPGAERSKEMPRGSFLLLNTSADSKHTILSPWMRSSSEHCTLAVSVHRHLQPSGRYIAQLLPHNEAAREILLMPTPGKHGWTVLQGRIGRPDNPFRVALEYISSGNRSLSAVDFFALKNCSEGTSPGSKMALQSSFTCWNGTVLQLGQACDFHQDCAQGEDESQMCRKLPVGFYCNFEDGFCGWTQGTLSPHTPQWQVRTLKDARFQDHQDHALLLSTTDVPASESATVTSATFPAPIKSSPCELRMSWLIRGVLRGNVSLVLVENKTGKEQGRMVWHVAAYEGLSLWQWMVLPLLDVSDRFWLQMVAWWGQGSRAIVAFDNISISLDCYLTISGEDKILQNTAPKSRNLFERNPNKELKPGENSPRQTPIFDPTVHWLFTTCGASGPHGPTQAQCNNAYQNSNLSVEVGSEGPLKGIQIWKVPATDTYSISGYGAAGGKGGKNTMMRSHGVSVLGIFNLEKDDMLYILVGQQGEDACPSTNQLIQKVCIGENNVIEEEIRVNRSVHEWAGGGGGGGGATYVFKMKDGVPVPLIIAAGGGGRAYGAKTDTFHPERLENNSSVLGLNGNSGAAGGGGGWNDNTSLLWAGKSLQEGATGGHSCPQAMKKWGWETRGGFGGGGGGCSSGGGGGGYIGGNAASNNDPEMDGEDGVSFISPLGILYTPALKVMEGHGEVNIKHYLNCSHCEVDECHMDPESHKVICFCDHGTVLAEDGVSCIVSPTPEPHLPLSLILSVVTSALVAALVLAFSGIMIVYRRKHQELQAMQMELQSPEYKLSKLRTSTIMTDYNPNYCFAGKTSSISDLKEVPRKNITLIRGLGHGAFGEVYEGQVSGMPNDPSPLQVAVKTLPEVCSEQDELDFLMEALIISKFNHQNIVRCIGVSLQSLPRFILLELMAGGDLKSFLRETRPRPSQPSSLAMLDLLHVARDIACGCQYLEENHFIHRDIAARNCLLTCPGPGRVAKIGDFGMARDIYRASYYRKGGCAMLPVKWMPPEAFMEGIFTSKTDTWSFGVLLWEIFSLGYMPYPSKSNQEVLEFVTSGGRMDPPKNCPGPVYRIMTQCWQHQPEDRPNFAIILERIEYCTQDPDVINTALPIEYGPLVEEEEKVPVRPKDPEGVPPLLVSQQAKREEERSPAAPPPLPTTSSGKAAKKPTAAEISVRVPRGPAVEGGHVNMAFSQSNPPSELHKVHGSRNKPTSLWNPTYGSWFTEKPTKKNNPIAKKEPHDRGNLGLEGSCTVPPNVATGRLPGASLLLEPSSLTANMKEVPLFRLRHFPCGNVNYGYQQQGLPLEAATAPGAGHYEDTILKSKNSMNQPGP
T1 sequence (O60674 whole entry): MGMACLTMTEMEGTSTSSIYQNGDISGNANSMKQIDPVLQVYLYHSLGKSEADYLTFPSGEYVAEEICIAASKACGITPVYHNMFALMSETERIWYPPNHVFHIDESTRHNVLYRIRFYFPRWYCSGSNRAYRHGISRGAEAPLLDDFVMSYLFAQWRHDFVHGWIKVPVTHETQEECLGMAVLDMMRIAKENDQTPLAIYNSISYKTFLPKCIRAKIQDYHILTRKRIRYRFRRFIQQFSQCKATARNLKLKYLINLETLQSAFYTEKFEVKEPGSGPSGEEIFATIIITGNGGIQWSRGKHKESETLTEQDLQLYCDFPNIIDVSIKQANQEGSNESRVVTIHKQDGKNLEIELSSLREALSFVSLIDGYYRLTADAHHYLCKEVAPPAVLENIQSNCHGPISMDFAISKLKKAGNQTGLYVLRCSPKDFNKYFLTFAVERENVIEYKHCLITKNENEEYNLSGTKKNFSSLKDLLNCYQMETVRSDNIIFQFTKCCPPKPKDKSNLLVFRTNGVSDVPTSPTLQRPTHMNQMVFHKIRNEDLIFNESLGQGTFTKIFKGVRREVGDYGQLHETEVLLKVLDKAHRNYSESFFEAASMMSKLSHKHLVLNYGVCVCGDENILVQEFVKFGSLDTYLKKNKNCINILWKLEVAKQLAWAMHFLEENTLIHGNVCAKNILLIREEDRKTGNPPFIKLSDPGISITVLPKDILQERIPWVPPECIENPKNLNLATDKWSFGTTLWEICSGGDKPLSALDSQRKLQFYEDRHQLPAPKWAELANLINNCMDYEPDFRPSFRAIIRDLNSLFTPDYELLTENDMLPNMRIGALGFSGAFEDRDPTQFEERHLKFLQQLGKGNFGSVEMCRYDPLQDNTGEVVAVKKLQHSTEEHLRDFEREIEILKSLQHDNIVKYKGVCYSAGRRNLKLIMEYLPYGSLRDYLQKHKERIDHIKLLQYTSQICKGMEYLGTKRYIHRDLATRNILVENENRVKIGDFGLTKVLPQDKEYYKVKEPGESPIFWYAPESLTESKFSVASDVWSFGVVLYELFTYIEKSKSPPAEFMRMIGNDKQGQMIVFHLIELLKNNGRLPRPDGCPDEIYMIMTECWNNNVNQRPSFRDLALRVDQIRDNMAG

| IC50 [1, 3] | IC50 [2, 4] | IC50 ([1]; JAK2 Kinase Inhibition) | IC50 ([2]; ALK Kinase Inhibition) | Compound |
| --- | --- | --- | --- | --- |
| < 100 nM | > 10000 nM | – | – | COc1ccc(-c2ccc3cnc(Nc4ccc5c(c4)N(C)CCC5)nn23)cn1 [Example 980, [7-(6-Methoxy-pyridin-3-yl)-pyrrolo[2,1-f][1,2,4]triazin-2-yl]-(1-methyl-1,2,3,4-tetrahydro-quinolin-7-yl)-amine] |
| – | – | < 100 nM | 100 to 1000 nM | COc1ccc(Nc2ncc3ccc(-c4cccc(S(=O)(=O)NC(C)(C)C)c4)n3n2)cc1N1CCCC1=O [Example 1377, N-tert-Butyl-3-{2-[4-methoxy-3-(2-oxo-pyrrolidin-1-yl)-phenylamino]-pyrrolo[2,1-f][1,2,4]triazin-7-yl}-benzenesulfonamide] |
| – | – | < 100 nM | 1000 to 10000 nM | COc1ccccc1NCc1ccc2cnc(Nc3ccc(N4CCN(C)CC4)cc3)nn12 [Example 365, {7-[(2-Methoxy-phenylamino)-methyl]-pyrrolo[2,1-f][1,2,4]triazin-2-yl}-[4-(4-methyl-piperazin-1-yl)-phenyl]-amine] |
| < 100 nM | < 100 nM | – | – | CN(c1ccccc1-c1ccc2cnc(Nc3ccc4nn(CCN5CCOCC5)cc4c3)nn12)S(C)(=O)=O [Example 1343, N-Methyl-N-(2-{2-[2-(2-morpholin-4-yl-ethyl)-2H-indazol-5-ylamino]-pyrrolo[2,1-f][1,2,4]triazin-7-yl}-phenyl)-methanesulfonamide] |
| – | – | < 100 nM | 1000 to 10000 nM | FC(F)(F)c1cc(-c2ccc3cnc(Nc4ccc(N5CCOCC5)cc4)nn23)ccc1Cl [Example 58, [7-(4-Chloro-3-trifluoromethyl-phenyl)-pyrrolo[2,1-f][1,2,4]triazin-2-yl]-(4-morpholin-4-yl-phenyl)-amine] |
| < 100 nM | 1000 to 10000 nM | – | – | COc1ccc(-c2ccc3cnc(Nc4ccc5c(c4)CN(C)C5)nn23)cn1 [Example 937, [7-(6-Methoxy-pyridin-3-yl)-pyrrolo[2,1-f][1,2,4]triazin-2-yl]-(2-methyl-2,3-dihydro-1H-isoindol-5-yl)-amine] |
| – | – | < 100 nM | < 100 nM | COc1cc(N2CCN(C)CC2)ccc1Nc1ncc2ccc(-c3cccnc3OC)n2n1 [Example 34, [2-Methoxy-4-(4-methyl-piperazin-1-yl)-phenyl]-[7-(2-methoxy-pyridin-3-yl)-pyrrolo[2,1-f][1,2,4]triazin-2-yl]-amine] |
| < 100 nM | 1000 to 10000 nM | – | – | CN1CCN(c2ccc(Nc3ncc4ccc(NCc5ccncc5)n4n3)cc2)CC1 [Example 1165, N(2)-[4-(4-Methyl-piperazin-1-yl)-phenyl]-N(7)-pyridin-4-ylmethyl-pyrrolo[2,1-f][1,2,4]triazine-2,7-diamine] |
| 1000 to 10000 nM | < 100 nM | – | – | COc1cc(C2CCN(CC(N)=O)CC2)ccc1Nc1ncc2c(O)cc(-c3ccccc3N(C)S(C)(=O)=O)n2n1 [Example 1259, 2-[4-(4-{5-Hydroxy-7-[2-(methanesulfonyl-methyl-amino)-phenyl]-pyrrolo[2,1-f][1,2,4]triazin-2-ylamino}-3-methoxy-phenyl)-piperidin-1-yl]-acetamide] |
| – | – | < 100 nM | 100 to 1000 nM | O=C(c1ccc(-c2ccc3cnc(Nc4ccc(N5CCOCC5)cc4)nn23)cc1)N1CCOCC1 [Example 14, Morpholin-4-yl-{4-[2-(4-morpholin-4-yl-phenylamino)-pyrrolo[2,1-f][1,2,4]triazin-7-yl]-phenyl}-methanone] |
| – | – | 100 to 1000 nM | < 100 nM | COc1cc(N2CCC(CN3CCN(C)CC3)CC2)ccc1Nc1ncc2ccc(-c3ccccc3OC)n2n1 [Example 468, {2-Methoxy-4-[4-(4-methyl-piperazin-1-ylmethyl)-piperidin-1-yl]-phenyl}-[7-(2-methoxy-phenyl)-pyrrolo[2,1-f][1,2,4]triazin-2-yl]-amine] |
| – | – | < 100 nM | 1000 to 10000 nM | CS(=O)(=O)c1ccc(-c2ccc3cnc(Nc4ccc5[nH]c(CN6CCN(CCO)CC6)nc5c4)nn23)cc1 [Example 1543, 2-(4-{5-[7-(4-Methanesulfonyl-phenyl)-pyrrolo[2,1-f][1,2,4]triazin-2-ylamino]-1H-benzimidazol-2-ylmethyl}-piperazin-1-yl)-ethanol] |
| – | – | < 100 nM | 1000 to 10000 nM | CN(C)C(=O)CN1CCc2ccc(Nc3ncc4ccc(Br)n4n3)cc2CC1 [Example 1574] |
| < 100 nM | 100 to 1000 nM | – | – | CN(c1ccccc1-c1ccc2cnc(Nc3ccc4c(c3)ncn4CCN3CCOCC3)nn12)S(C)(=O)=O [Example 1335, N-Methyl-N-(2-{2-[1-(2-morpholin-4-yl-ethyl)-1H-benzimidazol-5-ylamino]-pyrrolo[2,1-f][1,2,4]triazin-7-yl}-phenyl)-methanesulfonamide] |
| – | – | < 100 nM | > 10000 nM | CC(=O)Nc1cc(Nc2ncc3ccc(-c4cccc(Cl)c4)n3n2)ccc1C(C)(C)C [Example 307, N-{2-tert-Butyl-5-[7-(3-chloro-phenyl)-pyrrolo[2,1-f][1,2,4]triazin-2-ylamino]-phenyl}-acetamide] |
| – | – | 100 to 1000 nM | < 100 nM | COc1cc(N2CCCC(N3CC(C)OC(C)C3)C2)ccc1Nc1ncc2ccc(-c3ccccc3OC)n2n1 (stereo not drawn) [Example 1445, {4-[3-(2,6-Dimethyl-morpholin-4-yl)-piperidin-1-yl]-2-methoxy-phenyl}-[7-(2-methoxy-phenyl)-pyrrolo[2,1-f][1,2,4]triazin-2-yl]-amine] |
| – | – | < 100 nM | 100 to 1000 nM | CN1CCN(c2ccc(Nc3ncc4ccc(-c5ccc(S(C)(=O)=O)cc5)n4n3)cc2)CC1 [Example 59, [7-(4-Methanesulfonyl-phenyl)-pyrrolo[2,1-f][1,2,4]triazin-2-yl]-[4-(4-methyl-piperazin-1-yl)-phenyl]-amine] |
| < 100 nM | 100 to 1000 nM | – | – | CS(=O)(=O)c1cccc(-c2ccc3cnc(Nc4ccc(C5=CCN(CC(N)=O)CC5)c(C(F)(F)F)c4)nn23)c1 [Example 951, 2-(4-{4-[7-(3-Methanesulfonyl-phenyl)-pyrrolo[2,1-f][1,2,4]triazin-2-ylamino]-2-trifluoromethyl-phenyl}-3,6-dihydro-2H pyridin-1-yl) acetamide] |
| – | – | < 100 nM | 100 to 1000 nM | COCc1cccc(-c2ccc3cnc(Nc4ccc(N5CCN(C)CC5)cc4)nn23)c1 [Example 1503, [7-(3-Methoxymethyl-phenyl)-pyrrolo[2,1-f][1,2,4]triazin-2-yl]-[4-(4-methyl-piperazin-1-yl)-phenyl]-amine] |
| – | – | < 100 nM | 1000 to 10000 nM | CC(=O)Nc1cc(Nc2ncc3ccc(-c4cnn(C)c4)n3n2)ccc1C(C)(C)C [Example 1380, N-{2-tert-Butyl-5-[7-(1-methyl-1H-pyrazol-4-yl)-pyrrolo[2,1-f][1,2,4]triazin-2-ylamino]-phenyl}-acetamide] |
| < 100 nM | 1000 to 10000 nM | – | – | COc1ccccc1-c1ccc2cnc(Nc3cccc(S(=O)(=O)N(C)C)c3)nn12 [Example 594, 3-[7-(2-Methoxy-phenyl)-pyrrolo[2,1-f][1,2,4]triazin-2-ylamino]-N,N-dimethyl-benzenesulfonamide] |
| – | – | 100 to 1000 nM | 100 to 1000 nM | CC(C)(C)NS(=O)(=O)c1ccccc1-c1ccc2cnc(Nc3ccc(N4CCOCC4)cc3)nn12 [Example 412] |
| – | – | < 100 nM | 100 to 1000 nM | CN1CCN(c2ccc(Nc3ncc4ccc(-c5cccc(S(C)(=O)=O)c5)n4n3)cc2)CC1 [Example 82, [7-(3-Methanesulfonyl-phenyl)-pyrrolo[2,1-f][1,2,4]triazin-2-yl]-[4-(4-methyl-piperazin-1-yl)-phenyl]-amine] |
| < 100 nM | 100 to 1000 nM | – | – | COc1ccc(-c2ccc3cnc(Nc4ccc(CN5CCN(C)CC5)cc4)nn23)cn1 [Example 1214, [7-(6-Methoxy-pyridin-3-yl)-pyrrolo[2,1-f][1,2,4]triazin-2-yl]-[4-(4-methyl-piperazin-1-ylmethyl)-phenyl]-amine] |
| < 100 nM | > 10000 nM | – | – | Cc1nc2ccc(Nc3ncc4ccc(-c5cccc(S(=O)(=O)NC(C)(C)C)c5)n4n3)cc2s1 [Example 572, N-tert-Butyl-3-[2-(2-methyl-benzothiazol-6-ylamino)-pyrrolo[2,1-f][1,2,4]triazin-7-yl]-benzenesulfonamide] |
| < 100 nM | 100 to 1000 nM | – | – | COc1ccccc1-c1ccc2cnc(Nc3ccc4c(cnn4CCN4CCOCC4)c3)nn12 [Example 1346, [7-(2-Methoxy-phenyl)-pyrrolo[2,1-f][1,2,4]triazin-2-yl]-[1-(2-morpholin-4-yl-ethyl)-1H-indazol-5-yl]-amine] |
| – | – | < 100 nM | 100 to 1000 nM | COc1ccc(Cl)cc1-c1ccc2cnc(Nc3cccc(C(=O)N4CCN(C)CC4)c3)nn12 [Example 339, {3-[7-(5-Chloro-2-methoxy-phenyl)-pyrrolo[2,1-f][1,2,4]triazin-2-ylamino]-phenyl}-(4-methyl-piperazin-1-yl)-methanone] |

| Compound | IC50 [1, 3] | IC50 [2, 4] | IC50 ([1]; JAK2 Kinase Inhibition) | IC50 ([2]; ALK Kinase Inhibition) |
| --- | --- | --- | --- | --- |
| NC(=O)CN1CCC(c2ccc(Nc3ncc4ccc(C5=CCNCC5)n4n3)cc2)CC1 [Example 664, 2-(4-{4-[7-(1,2,3,6-Tetrahydro-pyridin-4-yl)-pyrrolo[2,1-f][1,2,4]triazin-2-ylamino]-phenyl}-piperidin-1-yl)-acetamide] | < 100 nM | 100 to 1000 nM | – | – |
| N-{2-[2-(4-{4-[(2-Hydroxy-ethyl)-methyl-amino]-piperidin-1-yl}-2-ethoxy-phenylamino)-pyrrolo[2,1-f][1,2,4]triazin-7-yl]-phenyl}-N-methyl-methanesulfonamide [Example 795] | 100 to 1000 nM | < 100 nM | – | – |
| 7-(2-methoxy-phenyl)-pyrrolo(2,1-f)(1,2,4)triazin-2-yl-6-amino-1′-methyl-spiro(2H-1-benzopyran-2,4′-piperidine) [Example 377] | – | – | < 100 nM | < 100 nM |
